Where no end group is shown, it is not given here. [ ]: non-standard residue; d: D form. Phe(4-NH2) = Nc1ccc(C[C@H](N)C(=O)O)cc1; Sta = CC(C)C[C@H](N)[C@@H](O)CC(=O)O; Hyp = O=C(O)[C@@H]1C[C@@H](O)CN1; Nip = nipecotic acid residue; Orn = NCCC[C@H](N)C(=O)O; Dab = NCC[C@H](N)C(=O)O; Imid = not defined here; Dap = NC[C@H](N)C(=O)O
What was measured:
[1] = tested on: BALB/c mice, arthritis; assay: Anti-collagen II antibody/LPS arthritis in mice (hind feet thickness); type: in vivo, mouse; details: 200 mg/kg/day intraperitoneally for 7 days
Method: On day 0, BALB/c mice were injected intravenously with the 1-2 mg 1B11 monoclonal anti-collagen II antibody. On day 1, animals were injected intraperitoneally with 20 μg LPS, and treatment with PAR-2 antagonists (200 mg/kg/day, intraperitoneally) for 7 days. After treatment was completed, disease is quantified by measuring the thickness (swelling) in both hind feet of the mouse. This was compared to untreated mice (p<0.05 vs. vehicle control).

[2] = tested on: PAR-2; assay: Inhibition of PAR-2 activating peptide (AP2) calcium signaling in cells pretreated with antagonist; type: cell-based, human; design: key to PAR-2 AP2 Signaling Treated/Control (T/C) / PAR-2 AP2 Signaling Treated/Control: AUC of calcium mobilization, treated ÷ control wells; details: for PAR-2 antagonist activity in vitro (in words): pretreated cells, then P2AP; for PAR-2 AP2 Signaling Treated/Control (T/C): peptides
Procedure, shortened: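 LLC cells loaded with Fluo-4 (4 uM final), and U87-MG glioma cells loaded with FLIPR Calcium 3 dye with 2.5 mM probenecid, were pretreated with antagonist, then stimulated with PAR-2 activating peptide. Initial screening was at 1 mM. Calcium AUC of treated over control wells is reported as T/C.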

[3] = tested on: ATP signaling; assay: Inhibition of ATP calcium signaling in pretreated cells; type: cell-based; details: cells pretreated with antagonist
Method: (§1) In order to assess the potential of peptides and molecules selected above to block PAR-2 signaling, cells were pretreated with potential antagonist peptides for a predetermined amount of time and were subsequently treated with various GPCR agonists. Confluent Lewis lung carcinoma (LLC) cells were loaded for 30-60 minutes with the fluorescent dye Fluo-4. Final concentration 4 uM Fluo-4, 0.02% pluronic acid in physiological buffer. Cells were then washed with assay buffer, (HBSS containing 1 mM CaCl2, 1 mM MgSO4, and 2.5 mM probenecid). Cells were stimulated with various doses of PAR-2 activating peptide, PAR-1 activating peptide or ATP. Fluorescence was monitored using a Wallac 1470 fluorescent plate reader. (See Al-ani et. al Journal of Pharmacology and Experimental Therapeutics 290:2, 753-760). Additional compound screening was performed using U87-MG human glioma cells. In this assay cells were labeled with FLIPR Calcium 3 dye (Component A), which was dissolved in 10 mls of Assay Buffer without Probenecid. Loading buffer was prepared by diluting Component A with an additional 90 mls of Assay Buffer without Probenecid, giving a total volume of a 100 ml. […] Calcium signaling was then measured using a Flexstation II (Molecular Devices) following manufacturer's instructions. […]

[4] = biological target: T1, PAR-1 (Homo sapiens, UniProt P25116); assay: Inhibition of PAR-1 activation peptide (SFLLRN) calcium signaling in pretreated cells; type: cell-based; details: cells pretreated with antagonist
T1 construct: endogenous in cells
T1 sequence (P25116 22-425): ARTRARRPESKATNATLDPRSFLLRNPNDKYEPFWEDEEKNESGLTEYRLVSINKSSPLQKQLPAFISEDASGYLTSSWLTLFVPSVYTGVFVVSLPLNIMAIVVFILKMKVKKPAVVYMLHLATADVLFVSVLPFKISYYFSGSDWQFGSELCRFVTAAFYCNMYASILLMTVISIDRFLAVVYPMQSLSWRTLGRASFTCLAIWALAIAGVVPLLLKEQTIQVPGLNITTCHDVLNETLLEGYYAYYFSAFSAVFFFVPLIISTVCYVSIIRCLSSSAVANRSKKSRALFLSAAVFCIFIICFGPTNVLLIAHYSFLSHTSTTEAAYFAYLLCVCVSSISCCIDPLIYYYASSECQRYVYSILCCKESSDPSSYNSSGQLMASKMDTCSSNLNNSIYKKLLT
Method: as §1

[5] = tested on: PAR-2; assay: PAR signalling activity: calcium mobilization (Fluo-4) in response to peptide; type: cell-based; details: FIGS. 2A-2C
Method: Confluent HUVECs, Lewis lung carcinoma cells or U87-MG glioma cells or HT29 colon carcinoma cells were loaded for 30-60 minutes with the fluorescent dye Fluo-4. Final concentration 4 uM Fluo-4, 0.02% pluronic acid in physiological buffer. Cells were then washed with assay buffer, (HBSS containing 1 mM CaCl2, 1 mM MgSO4, and 2.5 mM probenecid). Cells were stimulated with various doses of PAR-2 activating peptide, PAR-1 activating peptide or ATP. Fluorescence was monitored using a Wallac 1470 fluorescent plate reader. (See Al-ani et. al Journal of Pharmacology and Experimental Therapeutics 290:2, 753-760)
Calcium mobilization curves of the PAR-2 agonist SLIGKV (ENMD-1003) (SEQ ID NO:52) compared with two truncated molecules LIGK (ENMD-1005) (SEQ ID NO:1) and LIGKV (ENMD-1007) (SEQ ID NO:2) are provided in FIG. 2A. […] Similar studies were performed on alanine substituted SLIGKV (ENMD-1003) (SEQ ID NO:52) peptides (FIGS. 2B and 2C).

[6] = tested on: angiogenesis in Matrigel plug, C57/BL6 mice; assay: In vivo Matrigel angiogenesis assay (FGF-2, hemoglobin content in the plug); design: species or system mouse; details: subcutaneously daily for 6 days
[7] = biological target: T2, PAR-2 (Mus musculus, UniProt P55086); assay: PAR-2 agonist peptide induced murine footpad edema model; type: in vivo; details: co-treatment in footpad, C57BL6 mice, 1 hour
T2 construct: from tissue; host or cells: footpad of living C57BL6 mice
T2 sequence (P55086 26-399): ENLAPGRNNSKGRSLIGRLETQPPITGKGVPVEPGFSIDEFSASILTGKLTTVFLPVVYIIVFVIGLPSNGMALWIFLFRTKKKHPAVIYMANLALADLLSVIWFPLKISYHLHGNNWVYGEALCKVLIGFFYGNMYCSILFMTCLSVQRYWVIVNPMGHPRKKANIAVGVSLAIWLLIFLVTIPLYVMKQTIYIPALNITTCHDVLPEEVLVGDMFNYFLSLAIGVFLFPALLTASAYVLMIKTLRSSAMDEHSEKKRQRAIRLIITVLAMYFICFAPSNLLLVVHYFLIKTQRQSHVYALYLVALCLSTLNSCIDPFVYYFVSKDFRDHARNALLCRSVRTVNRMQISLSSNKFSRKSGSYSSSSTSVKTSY
Method: C57BL6 mice were injected with 5-25 μg of SLIGKV (ENMD-1003) (SEQ ID NO:52) into their footpad, in the presence or absence of increasing amounts of various PAR-2 antagonists. One hour later, footpad (tarsus) thickness was measured to quantify inflammation (edema).
The inventors next assessed whether the LIGK (ENMD-1005) (SEQ ID NO:1) peptide had in vivo PAR-2 antagonistic activity. This was studied using an edema model where vascular permeability was induced by the PAR-2 agonist peptide. In this model, the PAR-2 peptide induces severe edema as previously reported (FIG. 6). This vascular response was blocked by co-treatment with the PAR-2 antagonist LIGK (ENMD-1005) (SEQ ID NO:1) (FIG. 6). Thus, LIGK (ENMD-1005) (SEQ ID NO:1) functions in vivo to block PAR-2 signaling.

[8] = tested on: BALB/c mice, LPS induced weight loss; assay: Arthrogen-CIA induced body weight loss in mice; type: in vivo, mouse; details: 200 mg/kg/day intraperitoneally for 7 days
Method: On day 0, BALB/c mice were injected i.v. with the 1-2 mg 1B11 monoclonal anti-collagen II antibody. On day 1, animals were injected intraperitoneally with 20 μg LPS, and treatment with PAR-2 antagonists (200 mg/kg/day intraperitoneally) for 7 days. After treatment was completed, disease is quantified by measuring the thickness (swelling) in both hind feet of the mouse. This was compared to untreated mice. This model results in significant weight loss associated with the administration of LPS.

[9] = AUC of calcium mobilization treated/control, initially screened at 1 mM compound

| Compound | PAR-2 AP2 Signaling Treated/Control (T/C) [2, 9] | further results |
| --- | --- | --- |
| Br.CC(C)CC(=O)N1CCN(C(=O)CCCCCN)CC1 [ENMD-1068, 1-(4-(3-methylbutanoyl)piperazin-1-yl)-(6′-aminohexan-1-amide) hydrobromide] |  | Effect on inflammation / arthritis [1]: inhibited inflammation; PAR-2 AP2 Signaling Treated/Control ([2]; mimetic antagonists, AUC of calcium mobilization treated/control, initially screened at 1 mM compound): 0.58; PAR-2 antagonist activity in vitro (in words) [2]: inhibitor of PAR-2 signaling in vitro; Inhibitory effect on ATP signaling [3]: no inhibitory effects; Inhibitory effect on PAR-1 signaling [4]: no inhibitory effects |
| L-HyP-K (Leu-[Hyp]-Lys) [ENMD-1060] | 1.29 |  |
| L-Imid-GK (L[Imid]GK; reading uncertain; also: printed as L-Imid-GK) [ENMD-1063] | 0.94 |  |
| L-Imid-K (Leu-[Imid]-Lys; reading uncertain; also: printed as L-Imid-K) [ENMD-1062] | 0.94 |  |
| L-NiP-K (Leu-[Nip]-Lys) [ENMD-1058] | 1.58 |  |
| L-Nip-GK (L[Nip]GK) [ENMD-1059] | 0.97 |  |
| L-Sta-GK (L[Sta]GK) [ENMD-1057] | 1.40 |  |
| L-Sta-K (Leu-[Sta]-Lys) [ENMD-1056] | 1.35 |  |
| LIG-(4-aminoF) (LIG[Phe(4-NH2)]) [ENMD-1030] | 0.05 |  |
| LIG-Dab (LIG[Dab]) [ENMD-1026] | 0.23 |  |
| LIG-Dap (LIG[Dap]) [ENMD-1027] | 0.30 |  |
| LIG-Orn (LIG[Orn]) [ENMD-1028, Orn=ornithine] | 0.36 |  |
| LIG-dK (LIG[dK]) [ENMD-1384] | 0.16 |  |
| LIGD [ENMD-1045] | 0.39 |  |
| LIGE [ENMD-1046] | 0.34 |  |
| LIGH [ENMD-1054] | 0.83 |  |
| LIGK [ENMD-1005] |  | Calcium mobilization / PAR-2 signaling activity (in words) [5]: Neither truncated molecule was able to induce calcium mobilization; Inhibition of angiogenesis (hemoglobin content in the plug) ([6]; highest dose): more than 80%; Inhibition of angiogenesis (in words) [6]: dose dependent inhibition of angiogenesis; Effect on inflammation / arthritis [1]: inhibited inflammation; Block of AP2 signaling ([2]; 1 mM LIGK against 100 uM SLIGKV (FIG. 3)): completely blocked; IC50 ([2]; AP2 stimulated HT29 cells (FIG. 4)): < 500 µM; PAR-2 antagonist activity in vitro (in words) [2]: demonstrated antagonist activity; Inhibitory effect on ATP signaling [3]: no inhibitory effect; Effect on PAR-2 peptide induced edema (vascular response) [7]: blocked; Effect on LPS induced weight loss [8]: abrogated this LPS induced weight loss; Inhibitory effect on PAR-1 signaling [4]: no inhibitory effect |

| Compound | PAR-2 AP2 Signaling Treated/Control (T/C) [2, 9] | further results |
| --- | --- | --- |
| LIGK-amide (LIGK-NH2) [ENMD-1020] | 0.54 |  |
| LIGKV [ENMD-1007] |  | Calcium mobilization / PAR-2 signaling activity (in words) [5]: Neither truncated molecule was able to induce calcium mobilization; PAR-2 antagonist activity in vitro (in words) [2]: demonstrated antagonist activity |
| LIGM [ENMD-1064] | 1.19 |  |
| LIGN [ENMD-1047] | 0.88 |  |
| LIGQ [ENMD-1048] | 0.59 |  |
| LIGR [ENMD-1022] | 0.26 |  |
| LIGS [ENMD-1049] | 0.64 |  |
| LIGT [ENMD-1050] | 0.70 |  |
| LIGY [ENMD-1051] | 0.83 |  |
| LIPK [ENMD-1052] | 0.89 |  |
| LPGK [ENMD-1053] | 0.89 |  |
| SLIAKV [ENMD-1011] |  | Calcium mobilization / PAR-2 signaling activity (in words) [5]: robust signaling activity |
| SLIGKA [ENMD-1013] |  | Calcium mobilization / PAR-2 signaling activity (in words) [5]: robust signaling activity |
| SLIGKV [ENMD-1003, reference compound] |  | Calcium mobilization / PAR-2 signaling activity (in words) [5]: typical spike of calcium release followed by degradation of signal |
| dI-dG-dK [ENMD-1383] | 0.48 |  |
| dL-dI-dG-dK [ENMD-1032] | 0.44 |  |

Source: patent US20060063930A1, “Compositions and methods comprising proteinase activated receptor antagonists” (priority 2004, published 2006)
